Read-outs that look alike come from different tables or passages of the source.
What was measured:
[1] = test system: HOXA9 gene expression in THP1 cells; test: qRT-PCR analysis of HOXA9 gene expression in THP1 cells; format: cell-based, Human; conditions: 10 µM, 48 h
Protocol: Figure 7 Cellular activity of covalent, cyclic imine inhibitors to CBX8. a) qRT‐PCR analysis of HOXA9 gene expression in THP1 cells after 48 h of compound treatment at the indicated dose. N = 3. Error bars represent SD. Statistical significance was calculated using Student's t‐test. ** = p < 0.01, **** = p < 0.0001, b) qRT‐PCR analysis of HOXA9 gene expression in THP1 cells treated with increasing doses of compound for 48 h. N = 3. Error bars represent SD.
Figure S24. Cellular activity of covalent, cyclic imine inhibitors to CBX8. qRT-PCR analysis of HOXA9 gene expression in THP1 cells after 48 h of compound treatment at the indicated dose. N = 3. Error bars represent s.d. Statistical significance determined by Student’s T test. * = p <0.05, ** = p < 0.01, *** = p < 0.001, **** = p < 0.0001.
2.4 Cell Culture Cell line, Media and Culture Conditions HEK293T cells were cultured in Dubecco’s Modified Essential Media (DMEM), 10% fetal bovine serum (FBS, JR Scientific), 1% glutagro (Corning), 1% penicillin/streptomycin (Corning), 1% sodium pyruvate (Corning). Human THP1 cells were cultured in RPMI (Gibco), 10% FBS (J R Scientific), 1% Sodium pyruvate (Invitrogen), 1% Pen/Strep (Invitrogen), 1% Glutamax (Thermo Scientific), 0.1% 2-mercaptoethanol.
Cells were harvested after 48 h for RNA extraction. […] SYBR Green Mastermix (Thermo Scientific) was used for quantitative PCR. […]

[2] = target: T1, CBX8 Y39F (Homo sapiens, UniProt Q9HC52, Y39F); test: Labeling of CBX8 Y39F mutant (gel shift, LC/MS); format: binding; conditions: gel shift and LC/MS, 10 µM each, 37 °C
T1 construct: 6His (N); TEV site (ENLYFQG), read by me from the printed insert DNA (N); host or cells: E. coli (BL21 CodonPlus RIL or Rosetta 2), pET-28a(+)
T1 sequence (Q9HC52 11-69 Y39F limits assumed): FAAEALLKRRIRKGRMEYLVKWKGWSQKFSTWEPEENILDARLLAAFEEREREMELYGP
Protocol: (§1) Observed masses are shown (expected average mass for CBX8 ChD = 8792 Da). The observed mass difference (913 Da) agrees with the expected mass change of 913 Da. b) Labeled protein was detected by gel shift on 16.5% Tris‐Tricine SDS‐PAGE. […] Gel analysis was conducted on a 2.5% agarose gel in 10 mM sodium borate buffer. […] Assays were conducted using SW2_113 as an FP probe (Figure S20) at 100 nM. All proteins were used at 2 µM in PBS (pH 7), 0.02% Tween 20. Error bars represent SD. […] (μM); no other compound label is printed beside the IC50 lines
We confirmed protein labeling through a gel shift assay on Tris‐Tricine SDS‐PAGE (Figure 5b). […] To validate labeling of the targeted tyrosine residue (Y39), this amino acid was mutated to phenylalanine. […] We additionally confirmed the labeling site as Y39 by trypsin digest and LC‐MS/MS analysis (Figure S9B).
For P2, 10 µM purified CBX ChD was incubated with P2 (10 µM) in PBS buffer (pH 7) at 37 °C or R.T. for 1.5 hours, as well as 12 hours overnight. Samples were precipitated using MeOH and CHCl3 at the volume ratio of MeOH:CHCl3:sample=3:0.5:1, washed twice using cold MeOH, and air dried. Dried protein pellets were resuspended in aqueous buffer (0.1% formic acid, 300 mM ammonium acetate), and protein labeling were characterized and quantitated by ESI LC-MS.

[3] = Stability of warheads and inhibitors (solid, PBS, hydrolysis); format: physicochemical; conditions: 24 h in aqueous buffer, then sodium cyanoborohydride, mass spectrometry
Protocol: To be suitable for chemical probe and therapeutic applications, the warhead should show good stability. In general, we found the iminolactam warheads to be quite stable. Compound 1 was stable as a solid at room temperature for over 3 months. […] After 24‐h in aqueous buffer, compounds were treated with sodium cyanoborohydride. […] The synthetic strategy of in situ formation of imines by periodate treatment was pursued to avoid concerns of warhead reactivity with the ligand itself to either the peptide backbone or the phenoxyphenyl aryl group. This appears to have been unnecessary, at least for the iminolactam warhead. […] The more reactive ester imine may be forming semi‐stable cyclized products with the amide backbone, which have been observed previously with peptide aldehydes.^[ [51], [52] ^] Due to these issues, we selected compound P1b for further characterization.

[4] = target: T2, CBX8 ChD Y39F (Homo sapiens, UniProt Q9HC52, Y39F); test: Time-dependent fluorescence polarization displacement assay, CBX8 Y39F; format: binding; conditions: for IC50: Figure 5d, CBX8 Y39F 2 µM, probe 100 nM
T2 construct: 6His (N); TEV site (ENLYFQG), read by me from the printed insert DNA (N); host or cells: E. coli (BL21 CodonPlus RIL or Rosetta 2), pET-28a(+)
T2 sequence (Q9HC52 11-69 Y39F limits assumed): T1 sequence (Q9HC52 11-69 Y39F limits assumed)
Protocol: as §1
2.2 Fluorescence Displacement Assay to Evaluate Time-dependent potency of Imine Covalent Inhibitors to CBX ChD. Fluorescence polarization (FP) was measured by titration of CBX ChDs (CBX8 ChD/CBX8 ChD Y39F/CBX2 ChD) to a fluoresceine-labelled probe as previously reported ^1. Fluorescence displacement assays were performed in black 384-well plates with optical bottoms. Buffer used in FP assays consists of 100 mM Na2HPO4, 150 mM NaCl, 0.02% Tween 20. […] Two-fold dilutions of covalent inhibitors were used, starting with 100 µM as highest peptide concentration to 0.049 µM as the lowest. Four replicates were tested at each concentration. Fluorescence anisotropy was read at different time points. Raw data were analyzed using GraphPad Prism 7 following a “one site-Fit logIC50” competition model with any outliers (95 % confidence interval) being excluded.
Time-dependent fluorescence displacement assay Fluorescence polarization (FP) was measured by titration of CBX ChDs (CBX8 ChD/CBX8 ChD Y39F/CBX2 ChD) to a fluorescein-labelled probe as previously reported.^8 Fluorescence displacement assays were performed in black 384-well plates with optical bottoms. Buffer used in FP assays consists of 100 mM Na2HPO4, 150 mM NaCl, 0.02% Tween 20. […] Fluorescence anisotropy was read at different time points. […] Raw data were analyzed using GraphPad Prism 7 following a “one site-Fit logIC50” competition model with any outliers (95 % confidence interval) being excluded.

labeling of mutant CBX8 Y39F [2]: fails to label
stability to long‐term incubation in PBS [3]: stability over the 24 h
change in IC50 upon extended incubation ([4]; CBX8 Y39F mutant): no change in IC50
IC50 ([4]; read-out: IC50 at time 0): 12 µM
IC50 ([4]; IC50 at 20 h): 11 µM
SMILES: CC[C@H](C)[C@H](NC(=O)[C@@H](NC(=O)c1ccc(Oc2ccccc2)cc1)C1CCCC1)C(=O)N[C@@H](CCCCN(CC)CCCCCCN1CCN=CC1=O)C(=O)N[C@@H](CO)C(N)=O [P1b]
reduction of HOXA9 gene expression (in words) [1]: most effective at reducing HOXA9 gene expression
